# Measured values: patent US7001905B2, “Substituted diarylamines as MEK inhibitors” (Warner-Lambert Company, priority 2000, dated 2006)
# Molecular target: T1, MEK (Homo sapiens, UniProt Q02750)
# T1 construct: no tag is given for the 2D mutant
# Assay: in vitro MEK assay
# Type: biochemical
# Settings: not given
# Experimental: For evaluation of direct MEK activity, 10 μg GST-MEK, is incubated in the presence of absence of test compound with 5 μg of a glutathione S-transferase fusion protein containing p44MAP kinase with a lysine to alanine mutation at position 71 (GST-MAPK-KA). This mutation eliminates kinase activity of MAPK, so only kinase activity attributed to the added MEK remains. Incubations are 15 minutes at 30° C. in a final volume of 50 μL containing 50 mM Tris (pH 7.5), […], 2, μM EGTA, and 10 μM [γ-^32P]ATP. The reaction is stopped by addition of Laemmli SDS sample buffer. Phosphorylated GST-MAPK-KA is resolved by electrophoresis on a 10% polyacrylamide gel. Radioactivity incorporated into GST-MAPK-KA is determined by autoradiography, and subsequent scintillation counting of excised bands.
# Alternatively, an artificially activated MEK containing serine to glutamate mutations at positions 218 and 222 (GST-MEK-2E) is used. When these two sites are phosphorylated, MEK activity is increased. Phosphorylation of these sites can be mimicked by mutation of the serine residues to glutamate. For this assay, 5 μg GST-MEK-2E is incubated with 5 μg GST-MAPK-KA for 15 minutes at 30° C. in the same reaction buffer as described above. Reactions are terminated and analyzed as above.
# T1 sequence (Q02750 whole entry S218D/S222D, form open): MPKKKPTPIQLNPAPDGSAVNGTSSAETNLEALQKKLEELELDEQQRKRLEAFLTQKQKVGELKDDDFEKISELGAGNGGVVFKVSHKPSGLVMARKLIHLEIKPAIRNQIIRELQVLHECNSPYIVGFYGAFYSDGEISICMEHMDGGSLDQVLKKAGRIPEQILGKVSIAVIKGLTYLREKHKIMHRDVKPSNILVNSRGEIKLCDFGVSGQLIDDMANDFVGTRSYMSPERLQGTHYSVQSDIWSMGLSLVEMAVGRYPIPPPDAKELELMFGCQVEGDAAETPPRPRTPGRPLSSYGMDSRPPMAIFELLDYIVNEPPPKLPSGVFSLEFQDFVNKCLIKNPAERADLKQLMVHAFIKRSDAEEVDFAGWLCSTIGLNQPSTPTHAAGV
row,IC50,Structure (SMILES)
1,150 nM,"Cc1cc(I)ccc1Nc1c(C(=O)O)cc(C(=O)N2CCC(CCO)CC2)c(F)c1F [Example 83, 3,4-Difluoro-5-{1-[4-(2-hydroxy-ethyl)-piperidin-1-yl]-methanoyl}-2-(4-iodo-2-methyl-phenylamino)-benzoic acid]"
2,970 nM,"Cc1cc(I)ccc1Nc1c(C(=O)O)cc(C(=O)Nc2ccc(Cl)nc2)c(F)c1F [Example 85, N-(6-Chloro-pyridin-3-yl)-4,5-difluoro-6-(4-iodo-2-methyl-phenylamino)-isophthalamic acid]"

# Same assay, conditions: @ 1 μM
row,Structure (SMILES),in vitro MEK assay: % inhibition @ 1 μM
1,"CCOc1ccc2nc(NC(=O)c3cc4c(c(F)c3F)N(c3ccc(I)cc3C)COC4=O)sc2c1 [Example 28, 7,8-Difluoro-1-(4-iodo-2-methyl-phenyl)-4-oxo-1,4-dihydro-2H-3,1-benzoxazine-6-carboxylic acid (6-ethoxy-benzothiazol-2-yl)-amide]",9%
2,"Cc1cc(I)ccc1N1COC(=O)c2cc(C(=O)N3CCCCC3CCO)c(F)c(F)c21 (stereo not shown) [Example 32, 7,8-Difluoro-6-[2-(2-hydroxy-ethyl)-piperidine-1-carbonyl]-1-(4-iodo-2-methyl-phenyl)-1,2-dihydro-3,1-benzoxazin-4-one]",76%
3,"COc1ccc(NC(=O)c2cc3c(c(F)c2F)N(c2ccc(I)cc2C)COC3=O)cn1 [Example 46, 7,8-Difluoro-1-(4-iodo-2-methyl-phenyl)-4-oxo-1,4-dihydro-2H-3,1-benzoxazine-6-carboxylic acid (6-methoxy-pyridin-3-yl)amide]",43%
4,"Cc1cc(I)ccc1Nc1c(C(=O)O)cc(C(=O)N2CCC(CCO)CC2)c(F)c1F [Example 83, 3,4-Difluoro-5-{1-[4-(2-hydroxy-ethyl)-piperidin-1-yl]-methanoyl}-2-(4-iodo-2-methyl-phenylamino)-benzoic acid]",90%
5,"Cc1csc(NC(=O)c2cc3c(c(F)c2F)N(c2ccc(I)cc2C)COC3=O)n1 [Example 24, ,8-Difluoro-1-(4-iodo-2-methyl-phenyl)-4-oxo-1,4dihydro-2H-3,1-benzoxazine-6-carboxylic acid (4-methyl-thiazol-2-yl)-amide]",20%
6,"Cc1cc(I)ccc1Nc1c(C(=O)O)cc(C(=O)NCCC2CCCN2C)c(F)c1F (stereo not shown) [Example 66, 4,5-Difluoro-6-(4-iodo-2-methyl-phenylamino)-N-[2-(1-methyl-pyrrolidin-2-yl)-ethyl]-isophthalamic acid]",14%
7,"Cc1cc(I)ccc1Nc1c(C(=O)O)cc(C(=O)Nc2ccc3c(c2)OCCO3)c(F)c1F [Example 72, N-(2,3-Dihydro-benzo[1,4]dioxin-6-yl)4,5-difluoro-6-(4-iodo-2-methyl-phenylamino)-isophthalamic acid]",65%
8,"Cc1cc(I)ccc1Nc1c(C(=O)O)cc(C(=O)Nc2ccc(Cl)nc2)c(F)c1F [Example 85, N-(6-Chloro-pyridin-3-yl)-4,5-difluoro-6-(4-iodo-2-methyl-phenylamino)-isophthalamic acid]",90%
9,"Cc1cc(I)ccc1Nc1c(C(=O)O)cc(C(=O)N2CCN(C)CC2)c(F)c1F [Example 64, 3,4-Difluoro-2-(4-iodo-2-methyl-phenylamino)-5-[1-(4-methyl-piperazin-1-yl)-methanoyl]-benzoic acid]",57%
10,"Cc1cc(I)ccc1Nc1c(C(=O)O)cc(C(=O)N2CC[C@@H](O)C2)c(F)c1F [Example 61, 3,4-Difluoro-5-[1-((R)-3-hydroxy-pyrrolidin-1-yl)-methanoyl]-2-(4-iodo-2-methyl-phenylamino)-benzoic acid]",75%

# Next, values leading:
row,in vitro MEK assay: % inhibition @ 1 μM,Structure (SMILES)
1,7%,Cc1cc(I)ccc1N1COC(=O)c2cc(C(=O)N3CCC(N4CCCC4)CC3)c(F)c(F)c21 [Example 41]
2,72%,"Cc1cc(I)ccc1N1COC(=O)c2cc(C(=O)N3CCOCC3)c(F)c(F)c21 [Example 51, 7,8-Difluoro-1-(4-iodo-2-methyl-phenyl)-6-(morpholine-4-carbonyl)-1,2-dihydro-3,1-benzoxazin-4-one]"
3,0%,Cc1cc(I)ccc1N1COC(=O)c2cc(C(=O)N(C)C3CCN(C)CC3)c(F)c(F)c21 [Example 16]
4,15%,"Cc1cc(I)ccc1N1COC(=O)c2cc(C(=O)NCCN3CCOCC3)c(F)c(F)c21 [Example 42, 7,8-Difluoro-1-(4-iodo-2-methyl-phenyl)-4-oxo-1,4-dihydro-2H-3,1-benzoxazine-6-carboxylic acid (2-morpholin-4yl-ethyl)-amide]"
